Measurements as given in patent US10322191B2, “Targeted conjugates and particles and formulations thereof” (TARVEDA THERAPEUTICS, INC., priority 2014, dated 2019).
Read-outs that look alike come from different tables or passages of the source. Bridge positions count the residues as written; N and C are the ends. Square brackets hold non-standard residues; d marks the D form. Peptide text beside a SMILES is read from it. * marks the point of attachment. NH(CH2)2SS(DM1) = COc1cc2cc(c1Cl)N(C)C(=O)C[C@H](OC(=O)[C@H](C)N(C)C(=O)CCSSCCN*)[C@]1(C)O[C@H]1[C@H](C)[C@@H]1C[C@@](O)(NC(=O)O1)[C@H](OC)/C=C/C=C(\C)C2; X1 = COc1cc2cc(c1Cl)N(C)C(=O)C[C@H](OC(=O)[C@H](C)N(C)C(=O)CCS*)[C@]1(C)O[C@H]1[C@H](C)[C@@H]1C[C@@](O)(NC(=O)O1)[C@H](OC)/C=C/C=C(\C)C2; Mpa = O=C(O)CCS

Tested on: NCI-H524 (ATCC) human lung cancer cells
Type: cell-based
Conditions: Table 15
Procedure: Conjugates were assessed in an in vitro assay evaluating inhibition of cell proliferation. NCI-H524 (ATCC) human lung cancer cells were plated in 96 well, V-bottomed plates (Costar) at a concentration of 5,000 cells/well and 24 hours later were treated with compound for 2 hours and further incubated 70 hours. Compound starting dose was 20 μM and three-fold serial dilutions were done for a total of ten points. After 2 hours of treatment, cells were spun down, the drug containing media was removed, and fresh complete medium was added and used to resuspend the cells, which were spun again. After removal of the wash media, the cells were resuspended in complete medium, then transferred into white walled, flat bottomed 96 well plates. […] Proliferation was measured using CellTiter Glo reagent using the standard protocol (Promega) and a Glomax multi+detection system (Promega). Percent proliferation inhibition was calculated using the following formula: % inhibition=(control-treatment)/control*100. Control is defined as vehicle alone. IC50 curves were generated using the nonlinear regression analysis (four parameter) with GraphPad Prism 6.
Conjugates of the present invention were assessed in an in vitro assay evaluating inhibition of cell proliferation. NCI-H524 (ATCC) human lung cancer cells were plated in 96 well, V-bottomed plates (Costar) at a concentration of 5,000 cells/well. 24 hours later, cells were treated with either conjugate for 2 hours and further incubated 70 hours, or for octreotide competition experiments, treated with 100 μM octreotide for 30 min, and then treated with conjugate for 2 hours, and further incubated for 70 hours. Conjugate starting dose was 20 μM and three fold serial dilutions were done for a total of ten points. After 2 hours of treatment, cells were spun down, the drug containing media was removed, and fresh complete medium was added and used to resuspend the cells, which were spun again. After removal of the wash media, the cells were resuspended in complete medium, then transferred into white walled, flat bottomed 96 well plates. […] Proliferation was measured using CellTiter Glo reagent using the standard protocol (Promega) and a Glomax multi+detection system (Promega). Percent proliferation inhibition was calculated using the following formula: % inhibition=(control-treatment)/control*100. Control is defined as vehicle alone. IC50 curves were generated using the nonlinear regression analysis (four parameter) with GraphPad Prism 6.
Conjugates of the present invention were tested for their activity dependence on the somatostatin receptor. Active agent Z in the conjugate was selected from auristatin, carbazitaxel, DM1, doxorubicin, platinum, SN-38 and vinblastine. Active agent Z is connected to octreotide with various linkers. Proliferation IC50 values of the conjugates were measured. Proliferation IC50 values of the conjugates without octreotide competition were also measured. The ratio of IC50 with octreotide competition and IC50 without octreotide competition is an indicator of whether activity is at least partially dependent on bind to the somatostatin receptor.

[1] = treated 2 hours, further incubated 70 hours, read-out: H524 IC50
[2] = read-out: H524 IC50+ 100 uM octreotide, 100 μM octreotide for 30 min, then conjugate 2 hours, 70 hours incubation

COc1cc2cc(c1Cl)N(C)C(=O)C[C@H](OC(=O)[C@H](C)N(C)C(=O)CCSSCCNC(=O)[C@@H]1CSSC[C@H](NC(=O)[C@H](N)Cc3ccccc3)C(=O)N[C@@H](Cc3ccc(O)cc3)C(=O)N[C@H](Cc3c[nH]c4ccccc34)C(=O)N[C@@H](CCCCN)C(=O)N[C@@H]([C@@H](C)O)C(=O)N1)[C@]1(C)O[C@H]1[C@H](C)[C@@H]1C[C@@](O)(NC(=O)O1)[C@H](OC)/C=C/C=C(\C)C2 [Conjugate 59] (H-[dF]CY[dW]KTC-{NH(CH2)2SS(DM1)}; disulfide 2-7)
IC50 [1]: 24 nM
IC50 [2]: 170 nM

COc1cc2cc(c1Cl)N(C)C(=O)C[C@H](OC(=O)[C@H](C)N(C)C(=O)CCSSC[C@H](NC(=O)[C@@H]1CSSC[C@H](NC(=O)[C@H](N)Cc3ccccc3)C(=O)N[C@@H](Cc3ccc(O)cc3)C(=O)N[C@H](Cc3c[nH]c4ccccc34)C(=O)N[C@@H](CCCCN)C(=O)N[C@@H]([C@@H](C)O)C(=O)N1)C(=O)O)[C@]1(C)O[C@H]1[C@H](C)[C@@H]1C[C@@](O)(NC(=O)O1)[C@H](OC)/C=C/C=C(\C)C2 [Conjugate 61]
IC50 [1]: 89 nM
IC50 [2]: 274 nM

COc1cc2cc(c1Cl)N(C)C(=O)C[C@H](OC(=O)[C@H](C)N(C)C(=O)CCSSC[C@H](NC(=O)[C@@H]1CSSC[C@H](NC(=O)[C@H](N)Cc3ccccc3)C(=O)N[C@@H](Cc3ccc(O)cc3)C(=O)N[C@H](Cc3c[nH]c4ccccc34)C(=O)N[C@@H](CCCCN)C(=O)N[C@@H]([C@@H](C)O)C(=O)N1)C(=O)NC1CCCCC1)[C@]1(C)O[C@H]1[C@H](C)[C@@H]1C[C@@](O)(NC(=O)O1)[C@H](OC)/C=C/C=C(\C)C2 [Conjugate 63]
IC50 [1]: 44 nM
IC50 [2]: 168 nM

CCNC(=O)N[C@H](Cc1ccccc1)C(=O)N[C@H]1CSSC[C@@H](C(=O)N[C@H](C(=O)NCCSSCCC(=O)N(C)[C@@H](C)C(=O)O[C@H]2CC(=O)N(C)c3cc(cc(OC)c3Cl)C/C(C)=C/C=C/[C@@H](OC)[C@@]3(O)C[C@H](OC(=O)N3)[C@@H](C)[C@@H]3O[C@@]23C)[C@@H](C)O)NC(=O)[C@H]([C@@H](C)O)NC(=O)[C@H](CCCCN)NC(=O)[C@@H](Cc2c[nH]c3ccccc23)NC(=O)[C@H](Cc2ccc(O)cc2)NC1=O [Conjugate 65]
IC50 [1]: 30 nM
IC50 [2]: 229 nM

COc1cc2cc(c1Cl)N(C)C(=O)C[C@H](OC(=O)[C@H](C)N(C)C(=O)CCSSCCC(=O)N[C@H](Cc1ccccc1)C(=O)N[C@H]1CSSC[C@@H](C(=O)N[C@@H](Cc3c[nH]c4ccccc34)C(N)=O)NC(=O)[C@H](C(C)C)NC(=O)[C@H](CCCCN)NC(=O)[C@@H](Cc3c[nH]c4ccccc34)NC(=O)[C@H](Cc3ccc(O)cc3)NC1=O)[C@]1(C)O[C@H]1[C@H](C)[C@@H]1C[C@@](O)(NC(=O)O1)[C@H](OC)/C=C/C=C(\C)C2 [Conjugate 70] ([Mpa](X1)[dF]CY[dW]KVCW-NH2; disulfide 3-8)
IC50 [1]: 317 nM
IC50 [2]: 417 nM

COc1cc2cc(c1Cl)N(C)C(=O)C[C@H](OC(=O)[C@H](C)N(C)C(=O)CCSSCCC(=O)N[C@H](Cc1ccccc1)C(=O)N[C@H]1CSSC[C@@H](C(=O)N[C@H](C(=O)O)[C@@H](C)O)NC(=O)[C@H]([C@@H](C)O)NC(=O)[C@H](CCCCN)NC(=O)[C@@H](Cc3c[nH]c4ccccc34)NC(=O)[C@H](Cc3ccc(O)cc3)NC1=O)[C@]1(C)O[C@H]1[C@H](C)[C@@H]1C[C@@](O)(NC(=O)O1)[C@H](OC)/C=C/C=C(\C)C2 [Conjugate 74]
IC50 [1]: 549 nM
IC50 [2]: 562 nM

COc1cc2cc(c1Cl)N(C)C(=O)C[C@H](OC(=O)[C@H](C)N(C)C(=O)CCSSC(C)CCN[C@H](Cc1ccccc1)C(=O)N[C@H]1CSSC[C@@H](C(=O)N[C@H](CO)[C@@H](C)O)NC(=O)[C@H]([C@@H](C)O)NC(=O)[C@H](CCCCN)NC(=O)[C@@H](Cc3c[nH]c4ccccc34)NC(=O)[C@H](Cc3ccccc3)NC1=O)[C@]1(C)O[C@H]1[C@H](C)[C@@H]1C[C@@](O)(NC(=O)O1)[C@H](OC)/C=C/C=C(\C)C2 (some centres unmarked) [Conjugate 82]
IC50 [1]: 148 nM
IC50 [2]: 867 nM

COc1cc2cc(c1Cl)N(C)C(=O)C[C@H](OC(=O)[C@H](C)N(C)C(=O)CCSSCCCN1CCN(CC(=O)N[C@H](Cc3ccccc3)C(=O)N[C@H]3CSSC[C@@H](C(=O)N[C@H](CO)[C@@H](C)O)NC(=O)[C@H]([C@@H](C)O)NC(=O)[C@H](CCCCN)NC(=O)[C@@H](Cc4c[nH]c5ccccc45)NC(=O)[C@H](Cc4ccccc4)NC3=O)CC1)[C@]1(C)O[C@H]1[C@H](C)[C@@H]1C[C@@](O)(NC(=O)O1)[C@H](OC)/C=C/C=C(\C)C2 [Conjugate 86]
IC50 [1]: 386 nM
IC50 [2]: 553 nM

COc1cc2cc(c1Cl)N(C)C(=O)C[C@H](OC(=O)[C@H](C)N(C)C(=O)CCSSCCOCCOCCOCCOCCCN[C@H](Cc1ccccc1)C(=O)N[C@H]1CSSC[C@@H](C(=O)N[C@H](CO)[C@@H](C)O)NC(=O)[C@H]([C@@H](C)O)NC(=O)[C@H](CCCCN)NC(=O)[C@@H](Cc3c[nH]c4ccccc34)NC(=O)[C@H](Cc3ccccc3)NC1=O)[C@]1(C)O[C@H]1[C@H](C)[C@@H]1C[C@@](O)(NC(=O)O1)[C@H](OC)/C=C/C=C(\C)C2 [Conjugate 96]
IC50 [1]: 206 nM
IC50 [2]: 397 nM

COc1cc2cc(c1Cl)N(C)C(=O)C[C@H](OC(=O)[C@H](C)N(C)C(=O)CCSSCCOCCOCCOCCOCCC(=O)N[C@H](Cc1ccccc1)C(=O)N[C@H]1CSSC[C@@H](C(=O)N[C@H](CO)[C@@H](C)O)NC(=O)[C@H]([C@@H](C)O)NC(=O)[C@H](CCCCN)NC(=O)[C@@H](Cc3c[nH]c4ccccc34)NC(=O)[C@H](Cc3ccccc3)NC1=O)[C@]1(C)O[C@H]1[C@H](C)[C@@H]1C[C@@](O)(NC(=O)O1)[C@H](OC)/C=C/C=C(\C)C2 [Conjugate 98]
IC50 [1]: 690 nM
IC50 [2]: 1120 nM

COc1cc2cc(c1Cl)N(C)C(=O)C[C@H](OC(=O)[C@H](C)N(C)C(=O)CCSCCCN[C@H](Cc1ccccc1)C(=O)N[C@H]1CSSC[C@@H](C(=O)N[C@H](CO)[C@@H](C)O)NC(=O)[C@H]([C@@H](C)O)NC(=O)[C@H](CCCCN)NC(=O)[C@@H](Cc3c[nH]c4ccccc34)NC(=O)[C@H](Cc3ccccc3)NC1=O)[C@]1(C)O[C@H]1[C@H](C)[C@@H]1C[C@@](O)(NC(=O)O1)[C@H](OC)/C=C/C=C(\C)C2 [Conjugate 100]
IC50 [1]: 303 nM
IC50 [2]: 1060 nM

CCCCCCCCCCC(CCN[C@H](Cc1ccccc1)C(=O)N[C@H]1CSSC[C@@H](C(=O)N[C@@H](Cc2c[nH]c3ccccc23)C(N)=O)NC(=O)[C@H]([C@@H](C)O)NC(=O)[C@H](CCCCN)NC(=O)[C@@H](Cc2c[nH]c3ccccc23)NC(=O)[C@H](Cc2ccc(O)cc2)NC1=O)SSCCC(=O)N(C)[C@@H](C)C(=O)O[C@H]1CC(=O)N(C)c2cc(cc(OC)c2Cl)C/C(C)=C/C=C/[C@@H](OC)[C@@]2(O)C[C@H](OC(=O)N2)[C@@H](C)[C@@H]2O[C@@]12C (some centres unmarked) [Conjugate 102]
IC50 [1]: 335 nM
IC50 [2]: 579 nM

COc1cc2cc(c1Cl)N(C)C(=O)C[C@H](OC(=O)[C@H](C)N(C)C(=O)CCSC1CC(=O)N(CC3CCC(C(=O)N[C@H](Cc4ccccc4)C(=O)N[C@H]4CSSC[C@@H](C(=O)N[C@H](CO)[C@@H](C)O)NC(=O)[C@H]([C@@H](C)O)NC(=O)[C@H](CCCCN)NC(=O)[C@@H](Cc5c[nH]c6ccccc56)NC(=O)[C@H](Cc5ccccc5)NC4=O)CC3)C1=O)[C@]1(C)O[C@H]1[C@H](C)[C@@H]1C[C@@](O)(NC(=O)O1)[C@H](OC)/C=C/C=C(\C)C2 (some centres unmarked) [Conjugate 104]
IC50 [1]: 279 nM
IC50 [2]: 705 nM
